Measured values from patent US20100040623A1, “NEURITOGENIC AND NEURONAL SURVIVAL PROMOTING PEPTIDES DERIVED FROM THE FAMILY OF S-100 PROTEINS” (priority 2005, published 2010).

Tests used:
[1] = test system: primary hippocampal neurons; test: Neurite outgrowth from primary hippocampal neurons; type: cell-based, Wistar rat; conditions: for neurite outgrowth from hippocampal primary neurons (average neurite length): treated with various concentrations of peptide for 24 hours; for stimulation of neurite outgrowth in vitro (conclusion): summary statement
Description: (§1) Dissociated hippocampal and cerebellar (CGN) neurons were isolated from Wistar rat embryos at embryonic day 19 or newborn rats as previously described by Rønn et al. (1999). Briefly, hippocampus was isolated from the brain in ice cold modified Krebs Ringer solution, cleared of blood vessels, roughly homogenised by chopping and then trypsinised. The dissociated cells were washed in the presence of DNAse 1 and soybean trypsin inhibitor. Postnatal hippocampal neurons were plated at a density of 10,000 cells/cm^2 on uncoated 8-well permanox Lab-Tek chamber slides in Neurobasal medium supplemented with 0.4% (w/v) bovine serum albumin (BSA; Sigma-Aldrich), 2% (v/v) B27 Neurobasal supplement, 1% (v/v) glutamax, 100 U/ml penicillin, 100 μg/ml streptomycin and 2% 1 M HEPES (all from Gibco, BRL). After 24 hours, the neurons were fixed with 4% (v/v) formaldehyde for 20 minutes and thereafter immunostained using primary rabbit antibodies against GAP-43 and Alexa Fluor secondary goat anti-rabbit Ig antibodies. Images of at least 200 neurons for each group in each individual experiment were obtained systematically by computer assisted fluorescence microscopy as previously described (Rønn et al., 2000). Briefly, a Nikon Diaphot inverted microscope with a Nikon Plan 20× objective (Nikon, Tokyo, Japan) coupled to a video camera (Grundig Electronics, Germany) was used for recordings. A software package Prima developed at the Protein Laboratory (Copenhagen, Denmark) was used to make a stereologically based determination of neurite length (Rønn et al., 2000).
(§2) Neuronal cell cultures were treated with various concentrations of a peptide for 24 hours, and the average neurite length was evaluated as described above. […] Thus peptide segments number 3 and number 6 from various members of the S100 protein family may represent potent pharmacological tools to induce neuronal differentiation and axon regeneration.

cerebellar (CGN) neurons = test: Neurite outgrowth from primary cerebellar neurons; type: cell-based, Wistar rat; conditions: treated with various concentrations of peptide for 24 hours
Description: as §1, §2

ERK = test: Phosphorylation of ERK in primary hippocampal neurons (PAGE method); type: cell-based; conditions: neurons cultured 6 hours, stimulated 15 minutes
Description: (§3) Primary hippocampal neurons cultured for 6 hours were stimulated with H3 or H6 for 15 minutes. Thereafter the phosphorylation level of the three intracellular messengers involved in neurite outgrowth and survival, Akt, CREB, and ERK, was determined using the PAGE method.

Akt = test: Phosphorylation of Akt in primary hippocampal neurons (PAGE method); type: cell-based; conditions: neurons cultured 6 hours, stimulated 15 minutes
Description: as §3

CREB = test: Phosphorylation of CREB in primary hippocampal neurons (PAGE method); type: cell-based; conditions: neurons cultured 6 hours, stimulated 15 minutes
Description: as §3

[2] = test system: kainic acid (KA)-induced toxicity; test: Kainic acid-induced toxicity (seizures, mortality); type: in vivo, Male C57BL/6J mice; conditions: peptide 10 mg/kg daily from day -2; for amount of seizures: 20 mg/kg KA; for profile of seizures (severity): 30 mg/kg KA
Description: Male C57BL/6J mice were injected with 10 mg/kg H3 or H6 daily starting from day-2 prior to kainic acid treatment. At day 0 the animals were injected 30 mg/kg KA in order to induce severe seizures, or 20 mg/kg KA in order to induce mild seizures and prevent excessive mortality. Latency and seizure severity were scored for 2 h postinjection by using a numerical scale of 0 to 6: 0—immobility; 1—facial automatism; 2—head nodding; 3—forelimb clonus; 4—rearing; 5—generalized convulsions; 6—death. Control animals received s.c injection of vehicle.

[3] = test system: cultured hippocampal neurons; test: Intracellular Ca2+ concentration, fura-2 loaded neurons; type: cell-based; conditions: fura-2 ratiometric dye
[4] = test system: focal brain injury on the right fronto-parietal cortex; test: Traumatic brain injury (cryolesion): TUNEL, GFAP, PCNA; type: in vivo, Rats and mice; conditions: 10 mg/kg s.c. at day -1, 1 and 2; post-lesion day 4
Description: A focal brain injury on the right fronto-parietal cortex was made by applying a piece of dry-ice (−78° C.) directly onto the skull for 30 seconds in mice and 60 seconds in rats, as previously described in details (Penkowa et al., 2003).
Histochemistry and immunohistochemistry were performed on sections cut from organs taken from fixated animals. Rats and mice were deeply anesthetized with Brietal and flushed by cardiac perfusion with saline containing heparine (0.9% NaCl, 3 ml/L 5000IU heparine) for 2 minutes followed by fixation with Zamboni's fixative (pH 7.4) for 4-8 minutes depending on the size of the animal. For immunohistochemical investigation, brain were dissected and postfixed in Zamboni's for 2-3 hours, dehydraded in graded alcohol followed by xylol and subsequently embedded in paraffin before being cut in 3 μm frontal sections throughout the entire area of the cryo lesion. For heat-induced epitope retrieval, the sections were boiled in citrate buffer (pH 6 or 9) in a microwave oven for 10 minutes followed by incubation in 10% goat serum (In Vitro, Fredensborg, DK) or donkey serum (code BP 005.1; The Binding Site, Birmingham, UK) in tris buffered saline (TBS)/Nonidet P-40 (0.01%) for 30 minutes at room temperature. Sections with mouse tissue used for incubation with monoclonal mouse-derived antibodies were also incubated with Blocking Solutions A+B from the HistoMouse-SP kit to quench endogenous mouse IgG (Zymed, Calif., USA).
Following treatment as described above, sections were incubated overnight at 5° C. with one of the following primary antibodies: polyclonal rabbit anti-cow glial fibrillary acidic protein (GFAP) 1:250 (a marker for astrocytes; DakoCytomation); monoclonal mouse anti-rat proliferating cellular nuclear antigen (PCNA) 1:10 (marking proliferating cell nuclear antigen/cell proliferation; DakoCytomation). The primary antibody was detected with biotynilated secondary antibodies, incubated with streptavidinbiotin-peroxidase complex for 30 min.
Terminal deoxynucleotidyl transferase (TdT)-mediated deoxyuridine triphosphate (dUTP)-biotin nick end labelling (TUNEL) was performed using the Fragment End Labeling (FragEL™) Detection Kit (Calbiochem, USA, code QIA33). The FragEL kit contains all the materials used below and each step was performed according to the manufacturer's recommendations. The tissue was processed and rehydrated as mentioned above, and sections were incubated with 20 µg/ml proteinase K for 20 min to strip off nuclear proteins. After immersion in equilibration buffer for 20 min, sections were incubated with TdT and biotin-labeled deoxynucleotids (dNTP-biotin) in a humified chamber at 37° C. for 1.5 hr. This was followed by wash buffer and the stop solution for 5 min at room temperature to stop the reaction. After washing in TBS and incubation in blocking buffer for 10 min, the sections were incubated with Peroxidase-Streptavidin for 30 min and afterwards, DAB was used as chromogen. The sections were counterstained with methyl-green. Negative control sections were treated similarly but incubated in the absence of TdT enzyme or dNTP-biotin or Peroxidase-Streptavidin. We also compared our sections with positive control slides provided in the FragEL Detection Kit. Furthermore, TUNEL was compared with other stainings for apoptosis (activated caspase-3, cytochrome-c and TNF[…]-R1). In addition, the morphologic criteria for apoptosis, i.e. cell shrinkage, formation of apoptotic bodies, membrane blebbing, no loss of cellular integrity, compaction of chromatin into uniformly dense masses, were evaluated.
In addition to morphological evaluation, quantification (cellular counts) of some of the variables, i.e. GFAP-positive cells, the area of GFAP-immunoreactivity, % of TUNEL-positive cells, % of proliferating cells, were analyzed. The analysis was carried out from the penumbra area of 3 μm brain sections for statistical analysis of the results. […]

hippocampal neurons = conditions: Novitskaya et al., 2000; cited from earlier work
sciatic nerve crush = test: Functional recovery after sciatic nerve crush (Sciatic Function Index); type: in vivo, Wistar rats; conditions: 10 mg/kg daily for 18 days
Description: Nerve crush of sciatic nerve was performed as follows. Before surgery, animals were anesthetized with subcutaneous injection of a Fenthanil/Droperidol/Medazolam (0.8 ml per 100 g). The right hind limb was shaved and swabbed with antiseptic solution. A longitudinal cutaneous incision was made in the back of the thigh. Dissection was carried out along a plane separating the hamstring and gluteal muscles to expose the sciatic nerve. Careful dissection was performed to isolate the sciatic nerve from the surrounding connective tissue over a length of 2 to 2.5 cm. The sciatic nerve was unilaterally crushed twice in the same place (0.5 cm upper trifurcation) for a 30 sec using a locking surgical needle holder. The place of the crush was labelled with 5-0 suture material attached to the epineurium. […] The bottom of the corridor was lined with paper, upon which the hind pawprints of the rat were recorded. […] Several prints of each foot were inspected, and the best corresponding pair of prints from experimental (E) and normal (N) legs were measured to the nearest millimeter, using a caliper. Three footprint parameters were measured: distance from the heel to the third toe, print length (PL), the distance between the first and fifth toe, toe spread (TS), and distance between the second and fourth toe, the intermediary toe spread (IT). […]

| Substance | neurite outgrowth from hippocampal primary neurons (average neurite length) [1] | neurite outgrowth from cerebellar primary neurons (average neurite length) (cerebellar (CGN) neurons) | stimulation of neurite outgrowth in vitro (conclusion) [1] | phosphorylation level of ERK (ERK) | phosphorylation level of Akt (Akt) | phosphorylation level of CREB (CREB) | amount of seizures [2] | profile of seizures (severity) [2] | level of intracellular Ca2+ ([Ca2+]i) [3] | area of GFAP-immunoreactivity (astrogliosis) [4] | cell death (apoptosis, DNA fragmentation/TUNEL) in the cortex induced by cryolesion [4] | number of GFAP-positive cells (astrogliosis) [4] | further results |
| --- | --- | --- | --- | --- | --- | --- | --- | --- | --- | --- | --- | --- | --- |
| KQLLTKELANTIKNIK [A12H3, tetrameric peptide (hekatone) representing region 3 of S100A12] | strongly induced neurite outgrowth | strongly induced neurite outgrowth |  |  |  |  |  |  |  |  |  |  |  |
| HYHTHKE [A12H6, tetrameric peptide (hekatone) representing region 6 of S100A12] |  |  | potent stimulators of neurite outgrowth |  |  |  |  |  |  |  |  |  |  |
| NEFFEGFPDKQPRKK [A4H6, tetrameric peptide (hekatone) representing region 6 of S100A4] | strongly induced neurite outgrowth | strongly induced neurite outgrowth | potent stimulators of neurite outgrowth | significantly increased phosphorylation | significantly increased phosphorylation | significantly increased phosphorylation | decreased the amount of seizures | towards less severe seizures types | significantly increased | increase | protected cells in the cortex from cell death | increase |  |
| S100A4: S100 family Ca2+-binding protein S100A4 (also termed Mts1) |  |  |  |  |  |  |  |  |  |  |  |  | neurite outgrowth in hippocampal neurons in vitro (hippocampal neurons): potent promoter of neurite outgrowth |
| DEAAFQKLMSNLD [A4H4, tetrameric peptide (hekatone) representing region 4 of S100A4] |  |  |  |  |  |  |  |  |  |  |  |  | proliferation of neural progenitor cells [4]: strongly induced proliferation |
| KELLTRELPSFLGKRT [A4H3, tetrameric peptide (hekatone) representing region 3 of S100A4] | strongly induced neurite outgrowth | strongly induced neurite outgrowth | potent stimulators of neurite outgrowth | significantly increased phosphorylation | significantly increased phosphorylation | significantly increased phosphorylation | decreased the amount of seizures | towards less severe seizures types | but not H3 significantly increased | increase | protected cells in the cortex from cell death | increase | recovery of the motor function of the injured limb (SFI) (sciatic nerve crush): strongly promoted the recovery |
